Data as given in patent US20230285337A1, “LONG ACTING ANTICANCER COMPOSITIONS” (INTRAGEL THERAPEUTICS LTD., priority 2020, published 2023).

How the values were obtained:
[1] = system: Head and Neck Cancer tumor cells; experiment: In vivo testing of the cisplatin formulation for head and neck cancer with radiotherapy; details: nude mice, treatment 20 days after cell injection, 8 Gy irradiation at day 21 and 24, terminated day 50
Method: In this study, 3 experimental groups were used, 6 nude mice per group. All mice were injected with 600000 tumor cells. […] Cisplatin solutions were injected IP for 4 consecutive weeks, a total of 4 administrations. The animals were irradiated with 8 Gy at day 21 and day 24. The experiment was terminated at day 50.

[2] = rat, in vivo, iv, 5 mg/kg
Method: Polymer-cisplatin was injected subcutaneously to mice at the amount 10, 20, 40 µL per mice that is 4, 8, 16 mg cisplatin/Kg. As controls, 50µL of the drug free polymer was injected and 200 µL IV injection at a dose of 5 mg/kg. The mice were observed daily for morbidity and mortality, and daily for general clinical signs (cage side observation): changes in the skin, fur, eyes, nose, mouth, head, respiration, urine, feces, locomotor, and overall wellness.
An animal showing one of the humane endpoints according to Clinical Signs″, SOP-06-019, were euthanized and subjected to the termination procedure. Blood collection for cisplatin content was at 0(baseline), 1 h, 4 h, 8 h, 24 h,48 h,96 h, 168 h, thereafter once weekly until week 4. Blood for CBC and Biochemistry was at: 0(Baseline), 24 h, 72 h, 168 h thereafter once weekly until sacrifice. For the IV injected mice, plasma was collected at 0(baseline), 5 m, 15 m, 30 m, 1 h, 2 h, 4 h, 8 h, 24 h, 48 h, 72 h, and 96 h. Whole blood and Blood Biochemistry was at 0(Baseline), 24h and 96h. Whole blood was collected from each animal and treated according to common procedures. Urine collection amount was recorded at 0-6, 12-24, 48-72h, 72-96h, 96-120h and once weekly thereafter.

[NH2][Pt]([NH2])([Cl])[Cl] [cisplatin solution, Cisplatin]
effect on the tumor (tumor size) [1]: did not show any effect on the tumor
blood count (HGB, RBG & HCT) [2]: drastic drop in markers
body weight [2]: lower body weight
kidneys performance (creatinine and urea excretion) [2]: deteriorated kidneys performance
side effects, behaviour after injection [2]: severe side effects
